Active and inactive are the calls of the source. The calls are words filed in the database; no cut-off is given here. Where only a bound is given, the exact number is not on record here.

The test system of test [1] is BMDM. In words: Antiinflammatory activity in LPS-induced in C57 mouse BMDM cells assessed as reduction in TNFalpha mRNA expression at 20 uM incubated for 12 hrs by qRT-PCR analysis. The class given is functional, cell-based.
For test [2], the system named is BMDM. The experiment in a line: Antiinflammatory activity in LPS-induced in C57 mouse BMDM cells assessed as reduction in IL-12 mRNA expression at 20 uM incubated for 12 hrs by qRT-PCR analysis. The class given is functional, cell-based. Background: In qPCR the cycle at which signal appears reflects the starting amount.
For test [3], the system named is BMDM. The experiment in a line: Antiinflammatory activity in LPS-induced in C57 mouse BMDM cells assessed as reduction in IFN-gamma level at 5 to 20 uM by ELISA (Rvb < 7.8 pg/ml). The class given is functional. Conditions: dose 5-20 µM.
The subject of test [4] is BMDM. In words: Antiinflammatory activity in LPS-induced in C57 mouse BMDM cells assessed as reduction in TNFalpha level by ELISA. The test is classed as functional, cell-based.
Test [5] deals with BMDM. In words: Antiinflammatory activity in LPS-induced in C57 mouse BMDM cells assessed as reduction in IL-6 level by ELISA. The test is classed as functional, cell-based. In general terms: In an ELISA, binding on a coated surface is turned into a signal by an enzyme label.
Test [6] relates to BMDM. In words: Antiinflammatory activity in LPS-induced in C57 mouse BMDM cells assessed as reduction in IFN-gamma level at 10 to 20 uM by ELISA (Rvb < 7.8 pg/ml). The class given is functional. As to conditions: dose 10-20 µM.

With `C=C(C(=O)O)[C@H]1CC2=C(C)[C@@H](O)CC[C@]2(C)[C@@H](OC(C)=O)C1`, the inhibition result with BMDM [1] and in the test on BMDM [2] was “Active” throughout.
Take `C=C(C(=O)O)[C@@H]1C[C@H](O)[C@@]2(C)CCCC(=C)[C@]2(O)C1`: the inhibition result with BMDM [1] and with BMDM [2] was “Active” throughout.
Consider `C[C@]12CCC(=O)C=C1[C@H](O)[C@H]([C@](C)(O)CO)CC2`, for which the Activity in the test with BMDM [3] is below 7.8 pg/mL. Further, the inhibition entry in the test with BMDM [3], with BMDM [4] and in the test with BMDM [5] was “Dose-Dependent Effect” each time. Also, the inhibition result in the test with BMDM [1] and in the test on BMDM [2] was “Active” in each case.
Consider `C=C(C(=O)O)[C@H]1CC2=C(C)C(=O)CC[C@]2(C)[C@@H](OC(C)=O)C1`, for which the Activity in the test on BMDM [3] was below 7.8 pg/mL. For the same compound, the inhibition result in the test with BMDM [3], in the test with BMDM [4] and in the test on BMDM [5] was “Dose-Dependent Effect” throughout. For the same compound, the inhibition entry in the test with BMDM [1] and in the test on BMDM [2] was “Active” in each case.
As for `CC(=O)O[C@H]1C[C@@H]([C@](O)(CO)C(=O)O)CC2=C(C)CCC[C@@]21C`, the inhibition result with BMDM [1] and in the test with BMDM [2] was “Active” throughout.
Turning to `C=C(C(=O)O)[C@H]1CC2=C(C)C(=O)CC[C@]2(C)[C@@H](O)C1`, the inhibition entry in the test with BMDM [1] and in the test with BMDM [2] was “Active” each time.
As to `C=C(C(=O)O)[C@H]1CC2=C(C)[C@H](OCC)CC[C@]2(C)[C@@H](OC(C)=O)C1`, the inhibition entry in the test with BMDM [1] and in the test on BMDM [2] was “Active” in each case.
As to `C=C(C(=O)O)[C@H]1CC2=C(C)[C@H](O)CC[C@]2(C)[C@@H](OC(C)=O)C1`, the inhibition entry with BMDM [1] and in the test with BMDM [2] was “Active” in each case.
As to `C=C(C(=O)O)[C@H]1C=C2C(C)=CCC[C@]2(C)[C@@H](OC(C)=O)C1`, the inhibition result in the test with BMDM [1] and in the test with BMDM [2] was “Active” each time.
Take `C=C(C(=O)O)[C@@H]1C[C@H](OC(C)=O)[C@@]2(C)CCCC(=C)[C@]2(O)C1`: the Activity in the test on BMDM [3] is below 7.8 pg/mL. In addition, the inhibition result in the test with BMDM [3], with BMDM [4] and in the test on BMDM [5] was “Dose-Dependent Effect” each time. Further, the inhibition entry with BMDM [1] and with BMDM [2] was “Active” each time.
With `C=C(C(=O)O)[C@H]1CC2=C(C=O)CCC[C@]2(C)[C@@H](O)C1`, the inhibition entry with BMDM [1] and with BMDM [2] was “Active” in each case.
In the case of `C=C(C(=O)O)[C@@H]1C[C@H](OC(C)=O)[C@@]2(C)CCCC(=C)[C@@]2(O)C1`, the inhibition result with BMDM [1] and in the test on BMDM [2] was “Active” throughout.
On to `C=C(C(=O)O)[C@H]1CC2=C(C)[C@H](OC)CC[C@]2(C)[C@@H](OC(C)=O)C1`, for which the inhibition result in the test with BMDM [1] and in the test with BMDM [2] was “Active” throughout.
Take `CC(=O)O[C@H]1C[C@@H]([C@@](O)(CO)C(=O)O)CC2=C(C)CCC[C@@]21C`: the Activity in the test with BMDM [6] was below 7.8 pg/mL. Moreover, the inhibition result in the test with BMDM [6], in the test with BMDM [4] and with BMDM [5] was “Dose-Dependent Effect” each time. The inhibition entry with BMDM [1] and in the test on BMDM [2] was “Active” throughout.
In the case of `C=C(C(=O)O)[C@H]1CC2=C(CO)CCC[C@]2(C)[C@@H](OC(C)=O)C1`, the inhibition entry in the test with BMDM [1] and with BMDM [2] was “Active” in each case.
Turning to `C=C(C(=O)O)[C@H]1CC2=C(C)CCC[C@]2(C)[C@@H](O)C1`, the Activity in the test on BMDM [6] was below 7.8 pg/mL. For the same compound, the inhibition result with BMDM [6], in the test on BMDM [4] and in the test with BMDM [5] was “Dose-Dependent Effect” throughout. Moreover, the inhibition result with BMDM [1] and in the test with BMDM [2] was “Active” in each case.
On to `C=C(C(=O)O)[C@H]1CC2=C(C(=O)O)CCC[C@]2(C)[C@@H](OC(C)=O)C1`, for which the inhibition result with BMDM [1] and in the test on BMDM [2] was “Active” each time.
Turning to `C=C(C(=O)O)[C@H]1C=C2C(C)=CCC[C@]2(C)[C@@H](O)C1`, the Activity in the test on BMDM [3] is below 7.8 pg/mL. For the same compound, the inhibition result in the test on BMDM [3], with BMDM [4] and with BMDM [5] was “Dose-Dependent Effect” throughout. Further, the inhibition result in the test with BMDM [1] and in the test on BMDM [2] was “Active” in each case.
Turning to `C=C(C(=O)O)[C@H]1CC2=C(C)CCC[C@]2(C)[C@@H](OC(C)=O)C1`, the inhibition entry in the test on BMDM [1] and with BMDM [2] was “Active” in each case.
For `C=C(C(=O)O)[C@@H]1CC[C@@]2(C)CCC[C@@](C)(O)[C@@H]2C1`, the inhibition result in the test on BMDM [1] and in the test with BMDM [2] was “Active” in each case.

(Values after ChEMBL document CHEMBL4834449, “Anti-inflammatory Eudesmane Sesquiterpenoids from Artemisia hedinii” (2021).)
